Experimental data as given in patent publication EP3061750A1, “PYRAZOLE AMIDE COMPOUND CONTAINING DIPHENYL ETHER, AND APPLICATION THEREOF, AND PESTICIDE COMPOSITION” (Central China Normal University, priority 2013, dated 2015).
Like-named read-outs stand apart in the source and are kept apart here.

How the values were obtained:
[1] = tested on: Cucumber powdery mildew (Sphaerotheca uliginea); experiment: pot in vivo assay of bactericidal activity, cucumber powdery mildew; conditions: for pest or weed control at 200 µg/mL: Cucumis sativus, read-out: Efficacy(%) cucumber powery mildew
Text: (§1) This test is used to determine the bactericidal activity of the compounds prepared in Example 1, Preparation Examples 1 and 2.
(§2) The targets used in the test example are rice sheath blight and cucumber powdery mildew.
(§3) Test Method: According to "Standard Practice for determination of pesticide biological activity (SOP)", pyrazole amide compound containing diphenyl ether was dispensed to 5% emulsifiable concentrates (hereinafter referred to as 5% EC), […] method (pot in vivo assay). The screening results on the two test targets of the compounds prepared in Example 1, Preparation Examples 1 and 2 were shown in Table 4.
Cucumber powdery mildew (Sphaerotheca uliginea)
A cucumber seedling with uniform growth in true leaf stage was chosen, and dried in shade for 24h after spray treatment. Fresh cucumber powdery mildew spores on the cucumber leaves were collected and washed, and filtered through a double gauze to prepare a spore suspension with concentration of about 100,000 / ml, then spray inoculation was applied. The test materials inoculated were moved into artificial climate with relative humidity of 60-70% and temperature of 21-23 °C (indoor lighting), after about 10 days, investigating and grading were carried out according to the incidence of the blank control, and the control effect was calculated according to the disease index.
(§4) Investigation method and grading standard adopted "Guidelines for the field efficacy trials of pesticides", and the control effect was calculated with the disease index. The disease index = Σ(number of diseased leaves at each grade×relative grade value) × 100/(total number of leaves×9); [formula] Control effect (%) = (disease index of control−disease index of treated) × 100/disease index of control. [formula]

[2] = biological target: T1, succinate dehydrogenase (Sus scrofa, UniProt A5GZW8+D0VWV4+Q007T0); experiment: inhibitory activity on succinate dehydrogenase (DCIP reduction at 600 nm); format: biochemical, pig
T1 construct: succinate dehydrogenase, which was isolated from pig hearts; from tissue; host or cells: pig heart
Experimental: This test was used to determine the inhibitory activity on the succinate dehydrogenase of the compounds prepared in Example 1, Preparation Examples 1 and 2 .
The enzyme used in the test example was succinate dehydrogenase, which was isolated from pig hearts.
Test Method: total volume was 1.8ml, the system comprised 100mM Na2HPO4-NaH2PO4 buffer (pH7.4), 0.3mM EDTA, 20mM sodium succinate, 53µM DCIP (2,6-dichloro indophenol sodium), 2nM succinate dehydrogenase. In water bath with 23 °C of constant temperature and 600rpm magnetic stirring, the reduction of the light absorption of substrate DCIP was monitored at a wavelength of 600nm, the experimental points within the linear range were collected, that is, the experimental points in which the consumption of substrate was controlled not exceeding 5% were collected. The molar extinction coefficient of DCIP was 21mM^-1cm^-1. The reduction amount of DCIP during the reaction time was calculated and linear slope was fitted, and then the initial velocity of the reaction was obtained by deducting the baseline slope.

[3] = tested on: Rice sheath blight (Rhizoctonia solani); experiment: pot in vivo assay of bactericidal activity, rice sheath blight; conditions: for pest or weed control at 200 µg/mL: Rhizoctonia solani, read-out: Efficacy(%) rice sheath blight
Text: as §1, §2
as §3, with “EC), the” for “EC),”
Rice sheath blight (Rhizoctonia solani)
Two potted rice seedlings with uniform growth in true leaf stage were chosen, and dried by air after spray treatment. The side of bacteria cake with mycelium was closely attached on the leaves, after cultured at 22-26 °C under dark light in a moisture preserving manner for 24h, then cultured with natural light for about 4 days. The diameter of disease spot of each inoculating point was measured by using a caliper after the control material was fully attacked by disease, and the control effect was calculated.
as §4

T1 sequence (Q007T0 29-280): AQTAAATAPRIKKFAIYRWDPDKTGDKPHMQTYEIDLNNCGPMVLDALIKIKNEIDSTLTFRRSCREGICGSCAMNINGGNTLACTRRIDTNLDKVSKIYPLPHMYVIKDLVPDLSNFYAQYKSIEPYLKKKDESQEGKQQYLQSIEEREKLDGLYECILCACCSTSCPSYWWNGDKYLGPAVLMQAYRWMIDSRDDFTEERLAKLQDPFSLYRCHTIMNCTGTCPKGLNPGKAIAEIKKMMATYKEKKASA
T1 sequence (D0VWV4 30-169): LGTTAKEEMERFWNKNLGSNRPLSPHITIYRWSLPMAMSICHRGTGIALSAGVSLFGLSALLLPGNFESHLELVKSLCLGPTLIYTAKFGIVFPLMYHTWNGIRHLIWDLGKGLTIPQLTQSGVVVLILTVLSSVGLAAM
T1 sequence (A5GZW8 57-159 limits assumed): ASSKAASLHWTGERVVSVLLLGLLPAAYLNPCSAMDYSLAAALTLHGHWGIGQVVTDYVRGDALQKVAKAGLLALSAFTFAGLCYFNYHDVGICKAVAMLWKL
T1 sequence (Q0QF01 43-664 partner): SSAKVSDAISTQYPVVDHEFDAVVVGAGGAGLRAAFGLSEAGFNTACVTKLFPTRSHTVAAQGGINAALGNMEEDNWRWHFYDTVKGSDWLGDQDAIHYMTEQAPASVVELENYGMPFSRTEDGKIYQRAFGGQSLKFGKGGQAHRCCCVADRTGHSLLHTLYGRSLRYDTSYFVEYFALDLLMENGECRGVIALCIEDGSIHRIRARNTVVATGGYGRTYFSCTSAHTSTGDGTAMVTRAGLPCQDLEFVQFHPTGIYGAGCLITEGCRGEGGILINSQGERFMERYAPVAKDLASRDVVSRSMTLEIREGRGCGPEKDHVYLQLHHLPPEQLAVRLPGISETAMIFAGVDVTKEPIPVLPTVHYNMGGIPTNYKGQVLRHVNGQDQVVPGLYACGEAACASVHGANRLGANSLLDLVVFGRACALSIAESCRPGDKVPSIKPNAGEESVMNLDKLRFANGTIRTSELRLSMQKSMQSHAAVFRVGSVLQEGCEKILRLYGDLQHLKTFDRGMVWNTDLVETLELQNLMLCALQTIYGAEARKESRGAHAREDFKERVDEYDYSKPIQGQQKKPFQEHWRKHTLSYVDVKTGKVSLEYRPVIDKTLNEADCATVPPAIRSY

Cn1cc(C(=O)Nc2ccccc2Oc2ccc(C(F)(F)F)cc2)c(C(F)F)n1 [III-12]
pest or weed control at 200 µg/mL [1]: 0%
IC50 [2]: 1.62 ± 1.35 µM
pest or weed control at 200 µg/mL [3]: 72.3%

Cn1cc(C(=O)Nc2ccccc2Oc2ccc(Cl)cc2)c(C(F)F)n1 [III-10]
pest or weed control at 200 µg/mL [1]: 0%
IC50 [2]: 2.02 ± 1.15 µM
pest or weed control at 200 µg/mL [3]: 68.3%

Cn1cc(C(=O)Nc2ccccc2Oc2ccccc2)c(C(F)(F)F)n1 [Comparative compound 12, reference compound]
pest or weed control at 200 µg/mL [1]: 0%
IC50 [2]: 19.8 ± 1.07 µM
inhibition at 1 µM ([2]; read-out: inhibition ratio(%)): 0%
inhibition at 5 µM ([2]; read-out: inhibition ratio(%)): 10%
inhibition at 10 µM ([2]; read-out: inhibition ratio(%)): 22.3%
inhibition at 20 µM ([2]; read-out: inhibition ratio(%)): 38%
inhibition at 30 µM ([2]; read-out: inhibition ratio(%)): 50.3%
inhibition at 50 µM ([2]; read-out: inhibition ratio(%)): 61.8%
pest or weed control at 200 µg/mL [3]: 30.9%

Cc1cccc(Oc2ccccc2NC(=O)c2cn(C)nc2C(F)(F)F)c1C [III-13]
pest or weed control at 200 µg/mL [1]: 0%
IC50 [2]: 9.86 ± 1.27 µM
pest or weed control at 200 µg/mL [3]: 63.2%

Cn1cc(C(=O)Nc2ccccc2Oc2ccc(C(F)(F)F)cc2)c(C(F)(F)F)n1 [III-11]
pest or weed control at 200 µg/mL [1]: 0%
IC50 [2]: 3.17 ± 1.12 µM
pest or weed control at 200 µg/mL [3]: 56.3%

Cc1cc(C)cc(Oc2ccccc2NC(=O)c2cn(C)nc2C(F)(F)F)c1 [III-15]
pest or weed control at 200 µg/mL [1]: 0%
IC50 [2]: 5.12 ± 1.04 µM
pest or weed control at 200 µg/mL [3]: 55.2%

COc1cc(Oc2ccccc2NC(=O)c2cn(C)nc2C(F)(F)F)cc(OC)c1OC [III-4]
pest or weed control at 200 µg/mL [1]: 0%
IC50 [2]: > 100 µM
pest or weed control at 200 µg/mL [3]: 0%

Cc1nc(C(F)(F)F)c(C(=O)Nc2c(Br)cc(OC(F)(F)F)cc2Br)s1 [Thifluzamide, reference compound]
efficacy on cucumber powery mildew(%) ([1]; concentration 12.5 mg/L): 0%
efficacy on cucumber powery mildew(%) ([1]; concentration 25 mg/L): 22.22%
efficacy on cucumber powery mildew(%) ([1]; concentration 50 mg/L): 62.96%
efficacy on cucumber powery mildew(%) ([1]; concentration 100 mg/L): 100%
inhibition at 0.03 µM ([2]; concentration 0.03 µM, read-out: inhibition ratio(%)): 0%
inhibition at 0.05 µM ([2]; concentration 0.05 µM, read-out: inhibition ratio(%)): 9.21%
inhibition at 0.1 µM ([2]; concentration 0.1 µM, read-out: inhibition ratio(%)): 29.7%
inhibition at 0.2 µM ([2]; concentration 0.2 µM, read-out: inhibition ratio(%)): 47.6%
inhibition at 0.3 µM ([2]; concentration 0.3 µM, read-out: inhibition ratio(%)): 59.5%
inhibition at 0.5 µM ([2]; concentration 0.5 µM, read-out: inhibition ratio(%)): 71.7%
inhibition at 1 µM ([2]; concentration 1 µM, read-out: inhibition ratio(%)): 77.9%
inhibition at 10 µM ([2]; concentration 10 µM, read-out: inhibition ratio(%)): 94.5%
inhibition at 50 µM ([2]; concentration 50 µM, read-out: inhibition ratio(%)): 96.7%
IC50 ([2]; succinate dehydrogenase isolated from pig hearts, pH7.4, 23 °C, read-out: IC50): 0.2 ± 0.0121 µM
efficacy on rice sheath bilght(%) ([3]; concentration 1.5 mg/L): 0%
efficacy on rice sheath bilght(%) ([3]; concentration 3.25 mg/L): 13.38%
efficacy on rice sheath bilght(%) ([3]; concentration 6.25 mg/L): 54.30%
efficacy on rice sheath bilght(%) ([3]; concentration 12.5 mg/L): 61.36%
efficacy on rice sheath bilght(%) ([3]; concentration 25 mg/L): 81.85%
efficacy on rice sheath bilght(%) ([3]; concentration 50 mg/L): 100%
efficacy on rice sheath bilght(%) ([3]; concentration 100 mg/L): 100%

Cn1cc(C(=O)Nc2ccccc2Oc2ccc(C#N)cc2)c(C(F)F)n1 [III-7]
pest or weed control at 200 µg/mL [1]: 0%
IC50 [2]: > 100 µM
pest or weed control at 200 µg/mL [3]: 45%

Cn1cc(C(=O)Nc2ccccc2Oc2ccc(F)cc2)c(C(F)(F)F)n1 [III-3]
pest or weed control at 200 µg/mL [1]: 0%
IC50 [2]: > 100 µM
pest or weed control at 200 µg/mL [3]: 57%

Cn1cc(C(=O)Nc2ccccc2Oc2ccc(C#N)cc2)c(C(F)(F)F)n1 [III-6]
pest or weed control at 200 µg/mL [1]: 0%
IC50 ([2]; cells printed as "-" (footnote)): > 100 µM
pest or weed control at 200 µg/mL [3]: 30.2%
